Laboratory results as given in patent US20230257372A1 (CHONG KUN DANG PHARMACEUTICAL CORP., priority 2020, published 2023).

What was measured:
[1] = target: T1, human recombinant HDAC1 (Homo sapiens, UniProt Q13547); test: HDAC1 enzyme activity inhibition (HDAC Fluorimetric Drug Discovery Kit); assay type: biochemical; conditions: human recombinant HDAC1, Fluor de Lys substrate, 30° C. 60 minutes; read-out: HDAC1
T1 construct: purchased Enzo Life Science, Inc. BML-SE456
Summary of the method: (§1)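 Fluorescence from a Fluor de Lys developer step (30 minutes) reports residual deacetylation after a 60-minute, 30° C reaction of […] enzyme with 10 μM substrate and 5-fold compound dilutions.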

[2] = target: T2, human recombinant HDAC6 (Homo sapiens, UniProt Q9UBN7); test: HDAC6 enzyme activity inhibition (HDAC Fluorimetric Drug Discovery Kit); assay type: biochemical; conditions: for HDAC6 selectivity (fold): HDAC6 over HDAC1; for IC50: human recombinant HDAC6, same protocol as HDAC1
T2 construct: purchased Calbiochem Inc. 382180
T2 sequence (Q9UBN7 1-1215): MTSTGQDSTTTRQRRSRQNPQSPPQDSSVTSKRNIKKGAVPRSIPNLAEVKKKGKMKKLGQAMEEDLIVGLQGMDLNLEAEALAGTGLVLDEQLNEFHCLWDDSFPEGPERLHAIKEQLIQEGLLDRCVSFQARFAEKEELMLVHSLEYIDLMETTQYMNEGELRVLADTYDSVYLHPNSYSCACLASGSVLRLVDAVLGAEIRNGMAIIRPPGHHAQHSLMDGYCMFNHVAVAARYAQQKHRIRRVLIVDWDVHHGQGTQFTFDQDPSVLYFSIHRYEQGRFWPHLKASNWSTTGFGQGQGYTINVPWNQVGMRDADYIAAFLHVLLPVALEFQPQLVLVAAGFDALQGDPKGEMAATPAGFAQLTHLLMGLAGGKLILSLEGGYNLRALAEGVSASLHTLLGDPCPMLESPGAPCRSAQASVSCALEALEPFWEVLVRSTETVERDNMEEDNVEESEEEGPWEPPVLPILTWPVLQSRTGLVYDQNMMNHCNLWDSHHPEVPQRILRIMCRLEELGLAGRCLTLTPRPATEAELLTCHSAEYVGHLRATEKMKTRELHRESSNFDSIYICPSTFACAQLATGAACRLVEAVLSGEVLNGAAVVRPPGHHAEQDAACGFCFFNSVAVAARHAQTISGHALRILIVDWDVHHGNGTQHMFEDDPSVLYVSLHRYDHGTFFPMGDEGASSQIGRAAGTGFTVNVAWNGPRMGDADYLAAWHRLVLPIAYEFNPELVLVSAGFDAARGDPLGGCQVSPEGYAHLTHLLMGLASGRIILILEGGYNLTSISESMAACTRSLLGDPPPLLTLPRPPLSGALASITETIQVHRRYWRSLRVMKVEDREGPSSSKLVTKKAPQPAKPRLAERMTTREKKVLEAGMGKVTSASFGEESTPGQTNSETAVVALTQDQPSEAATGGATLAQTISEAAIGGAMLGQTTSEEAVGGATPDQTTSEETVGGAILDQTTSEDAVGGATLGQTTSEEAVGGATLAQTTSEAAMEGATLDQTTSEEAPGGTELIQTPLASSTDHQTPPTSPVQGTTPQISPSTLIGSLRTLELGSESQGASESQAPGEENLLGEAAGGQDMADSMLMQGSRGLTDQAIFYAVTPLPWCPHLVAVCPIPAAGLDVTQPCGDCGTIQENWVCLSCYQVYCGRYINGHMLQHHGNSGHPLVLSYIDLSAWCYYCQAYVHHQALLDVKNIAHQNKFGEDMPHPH
Summary of the method: as §1

T1 sequence (Q13547 whole entry): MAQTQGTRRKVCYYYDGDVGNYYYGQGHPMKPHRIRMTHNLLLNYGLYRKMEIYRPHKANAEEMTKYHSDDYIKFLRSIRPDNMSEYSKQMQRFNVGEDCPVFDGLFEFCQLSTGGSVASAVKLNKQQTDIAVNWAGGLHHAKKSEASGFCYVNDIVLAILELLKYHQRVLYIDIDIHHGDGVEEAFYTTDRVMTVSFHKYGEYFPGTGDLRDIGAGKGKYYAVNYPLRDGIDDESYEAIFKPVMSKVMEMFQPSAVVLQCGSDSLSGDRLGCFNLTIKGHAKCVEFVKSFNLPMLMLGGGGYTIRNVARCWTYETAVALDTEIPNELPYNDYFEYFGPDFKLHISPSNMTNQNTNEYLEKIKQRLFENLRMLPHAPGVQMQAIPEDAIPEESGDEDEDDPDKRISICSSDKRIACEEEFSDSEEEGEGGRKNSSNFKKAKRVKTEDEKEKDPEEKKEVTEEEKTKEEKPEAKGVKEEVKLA

SMILES | IC50 [1] | HDAC6 selectivity (fold) [2] | IC50 [2]
NC1(C(=O)Nc2cccc(-c3cn(Cc4ccc(-c5nnc(C(F)F)o5)cn4)nn3)c2)CCC1 [Compound 4498, 1-amino-N-(3-(1-((5-(5-(difluoromethyl)-1,3,4-oxadiazol-2-yl)pyridin-2-yl)methyl)-1H-1,2,3-triazol-4-yl)phenyl)cyclobutan-1-carboxamide] | > 50000 nM | 1628 fold | 30.7 nM
Fc1cc(-c2nnc(C(F)F)o2)ccc1Cn1cc(-c2cc3c(s2)CNCC3)nn1 [Compound 4499, 2-(difluoromethyl)-5-(3-fluoro-4-((4-(4,5,6,7-tetrahydrothieno[2,3-c]pyridin-2-yl)-1H-1,2,3-triazol-1-yl)methyl)phenyl)-1,3,4-oxadiazole] | > 50000 nM | 922 fold | 54.2 nM
CN1CCc2cc(-c3cn(Cc4ccc(-c5nnc(C(F)F)o5)cc4F)nn3)sc2C1 [Compound 4500, 2-(difluoromethyl)-5-(3-fluoro-4-((4-(6-methyl-4,5,6,7-tetrahydrothieno[2,3-c]pyridin-2-yl)-1H-1,2,3-triazol-1-yl)methyl)phenyl)-1,3,4-oxadiazole] | > 50000 nM | 413 fold | 121 nM
CC(C)N1CCc2cc(-c3cn(Cc4ccc(-c5nnc(C(F)F)o5)cc4F)nn3)sc2C1 [Compound 4501] | > 50000 nM | 365 fold | 137 nM
CCN1CC(c2cccc(-c3cn(Cc4ccc(-c5nnc(C(F)F)o5)cn4)nn3)c2)C1 [Compound 4502, 2-(difluoromethyl)-5-(6-((4-(3-(1-ethylazetidin-3-yl)phenyl)-1H-1,2,3-triazol-1-yl)methyl)pyridin-3-yl)-1,3,4-oxadiazole] | > 50000 nM | 3571 fold | 14.2 nM

Results, then the compound that gave them:

IC50 [1] | HDAC6 selectivity (fold) [2] | IC50 [2] | SMILES
> 50000 nM | 4672 fold | 10.7 nM | CC(C)N1CC(c2cccc(-c3cn(Cc4ccc(-c5nnc(C(F)F)o5)cn4)nn3)c2)C1 [Compound 4503, 2-(difluoromethyl)-5-(6-((4-(3-(1-isopropylazetidin-3-yl)phenyl)-1H-1,2,3-triazol-1-yl)methyl)pyridin-3-yl)-1,3,4-oxadiazole]
> 50000 nM | 3703 fold | 13.5 nM | FC(F)c1nnc(-c2ccc(Cn3cc(-c4cccc(C5CN(C6CCC6)C5)c4)nn3)nc2)o1 [Compound 4504, 2-(6-((4-(3-(1-cyclobutylazetidin-3-yl)phenyl)-1H-1,2,3-triazol-1-yl)methyl)pyridin-3-yl)-5-(difluoromethyl)-1,3,4-oxadiazole]
> 50000 nM | 2032 fold | 24.6 nM | FC(F)c1nnc(-c2ccc(Cn3cc(-c4cccc(C5CN(C6COC6)C5)c4)nn3)nc2)o1 [Compound 4505, 2-(difluoromethyl)-5-(6-((4-(3-(1-(oxetan-3-yl)azetidin-3-yl)phenyl)-1H-1,2,3-triazol-1-yl)methyl)pyridin-3-yl)-1,3,4-oxadiazole]
> 50000 nM | 2262 fold | 22.1 nM | CCN1CC(c2cccc(-c3cn(Cc4ccc(-c5nnc(C(F)F)o5)cc4F)nn3)c2)C1 [Compound 4506, 2-(difluoromethyl)-5-(4-((4-(3-(1-ethylazetidin-3-yl)phenyl)-1H-1,2,3-triazol-1-yl)methyl)-3-fluorophenyl)-1,3,4-oxadiazole]
> 50000 nM | 1779 fold | 28.1 nM | Fc1cc(-c2nnc(C(F)F)o2)ccc1Cn1cc(-c2cccc(C3CN(C4CCC4)C3)c2)nn1 [Compound 4507]
> 50000 nM | 1381 fold | 36.2 nM | CCN1CC(c2cccc(-c3cn(Cc4ccc(-c5nnc(C(F)F)o5)cc4)nn3)c2)C1 [Compound 4508, 2-(difluoromethyl)-5-(4-((4-(3-(1-ethylazetidin-3-yl)phenyl)-1H-1,2,3-triazol-1-yl)methyl)phenyl)-1,3,4-oxadiazole]
